Patent US20250276953A1, “SMALL MOLECULE SIRTUIN INHIBITORS AND USES THEREOF” (The Regents of the University of Michigan, priority 2022, published 2025)

molecular target: T1, SIRT5 (Homo sapiens (Human), UniProt Q9NXA8); assay: SIRT5 IC50 (Table I); type: biochemical
T1 sequence (Q9NXA8 37-310): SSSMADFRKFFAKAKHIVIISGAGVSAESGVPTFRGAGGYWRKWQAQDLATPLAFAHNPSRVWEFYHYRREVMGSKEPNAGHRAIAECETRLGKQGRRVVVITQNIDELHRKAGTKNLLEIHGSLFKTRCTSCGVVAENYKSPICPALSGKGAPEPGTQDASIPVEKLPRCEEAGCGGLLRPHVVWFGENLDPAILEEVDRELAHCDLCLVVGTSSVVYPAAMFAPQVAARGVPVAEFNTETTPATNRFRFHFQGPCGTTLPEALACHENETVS

Row | IC50 [µM] | SMILES
1 | 50.7 ± 5.64 | CC(=O)Nc1ccc(-c2csc(NC(=S)Nc3ccc(C(=O)O)cc3O)n2)cc1 [Compound 1-9, 4-(3-(4-(4-acetamidophenyl)thiazol-2-yl)thioureido)-3-hydroxybenzoic acid]
2 | 8.22 ± 1.3 | O=C(O)c1ccc(NC(=S)Nc2nc(-c3ccc(F)c(S(=O)(=O)NCc4ccccc4)c3)cs2)cc1O [Compound 1-38, 4-(3-(4-(3-(N-benzylsulfamoyl)-4-fluorophenyl)thiazol-2-yl)thioureido)-2-hydroxybenzoic acid]
3 | 4.3 ± 0.3 | O=C(O)c1ccc(NC(=S)Nc2nc(-c3ccc([N+](=O)[O-])cc3)cs2)cc1O [Compound 1-23, 2-hydroxy-4-(3-(4-(4-nitrophenyl)thiazol-2-yl)thioureido)benzoic acid]
4 | 14.9 ± 1.35 | O=C(O)c1ccc(NC(=S)Nc2nc(-c3ccc([N+](=O)[O-])c(F)c3)cs2)cc1O [Compound 1-35, 4-(3-(4-(3-fluoro-4-nitrophenyl)thiazol-2-yl)thioureido)-2-hydroxybenzoic acid]
5 | 23.8 ± 2.71 | O=C(O)c1ccc(NC(=S)Nc2nc(-c3ccc([N+](=O)[O-])cc3F)cs2)cc1O [Compound 1-34, 4-(3-(4-(2-fluoro-4-nitrophenyl)thiazol-2-yl)thioureido)-2-hydroxybenzoic acid]
6 | 14.8 ± 0.81 | N#Cc1ccc(-c2csc(NC(=S)Nc3ccc(C(=O)O)c(O)c3)n2)c(F)c1 [Compound 1-33, 4-(3-(4-(4-cyano-2-fluorophenyl)thiazol-2-yl)thioureido)-2-hydroxybenzoic acid]
7 | 11.6 ± 0.74 | O=C(O)c1ccc(NC(=S)Nc2nc(-c3ccc(F)c([N+](=O)[O-])c3)cs2)cc1O [Compound 1-36, 4-(3-(4-(4-fluoro-3-nitrophenyl)thiazol-2-yl)thioureido)-2-hydroxybenzoic acid]
8 | 23.4 ± 0.92 | Cc1ccc(-c2csc(NC(=S)Nc3ccc(C(=O)O)c(O)c3)n2)cc1 [Compound 1-10, 2-hydroxy-4-(3-(4-(p-tolyl)thiazol-2-yl)thioureido)benzoic acid]
9 | 55.6 ± 5.49 | CC(=O)Nc1ccccc1-c1csc(NC(=S)Nc2ccc(C(=O)O)c(O)c2)n1 [Compound 1-25, 4-(3-(4-(2-acetamidophenyl)thiazol-2-yl)thioureido)-2-hydroxybenzoic acid]
10 | 16.1 ± 0.73 | O=C(O)c1ccc(NC(=S)Nc2nc(-c3ccc(F)c(F)c3)cs2)cc1O [Compound 1-30, 4-(3-(4-(3,4-difluorophenyl)thiazol-2-yl)thioureido)-2-hydroxybenzoic acid]
11 | 27.7 ± 1.02 | Cc1cccc(-c2csc(NC(=S)Nc3ccc(C(=O)O)c(O)c3)n2)c1 [Compound 1-11, 2-hydroxy-4-(3-(4-(m-tolyl)thiazol-2-yl)thioureido)benzoic acid]
12 | 11.4 ± 0.5 | N#Cc1ccc(-c2csc(NC(=S)Nc3ccc(C(=O)O)c(O)c3)n2)cc1 [Compound 1-22, 4-(3-(4-(4-cyanophenyl)thiazol-2-yl)thioureido)-2-hydroxybenzoic acid]
13 | 18.3 ± 0.95 | O=C(O)c1ccc(NC(=S)Nc2nc(-c3cccc(F)c3)cs2)cc1O [Compound 1-14, 4-(3-(4-(3-fluorophenyl)thiazol-2-yl)thioureido)-2-hydroxybenzoic acid]
14 | 55.9 ± 5.42 | CC(=O)Nc1ccc(-c2csc(NC(=S)Nc3ccc(O)c(C(=O)O)c3)n2)cc1 [Compound 1-8, 5-(3-(4-(4-acetamidophenyl)thiazol-2-yl)thioureido)-2-hydroxybenzoic acid]
15 | 26.4 ± 0.83 | CC(=O)Nc1ccc(-c2csc(Nc3ccc(C(=O)O)c(O)c3)n2)cc1 [Compound 1-1, 4-((4-(4-acetamidophenyl)thiazol-2-yl)amino)-2-hydroxybenzoic acid]
16 | 29.2 ± 2.88 | COc1ccc(-c2csc(NC(=S)Nc3ccc(C(=O)O)c(O)c3)n2)cc1 [Compound 1-18, 2-hydroxy-4-(3-(4-(4-methoxyphenyl)thiazol-2-yl)thioureido)benzoic acid]
17 | 18.4 ± 0.28 | O=C(O)c1ccc(NC(=S)Nc2nc(-c3ccc(Cl)cc3)cs2)cc1O [Compound 1-27, 4-(3-(4-(4-chlorophenyl)thiazol-2-yl)thioureido)-2-hydroxybenzoic acid]
18 | 24.9 ± 0.54 | O=C(O)c1ccc(NC(=S)Nc2nc(-c3ccc(F)c(S(=O)(=O)NC4CCCC4)c3)cs2)cc1O [Compound 1-37, 4-(3-(4-(3-(N-cyclopentylsulfamoyl)-4-fluorophenyl)thiazol-2-yl)thioureido)-2-hydroxybenzoic acid]

Row | IC50 [µM] | SMILES
19 | 12.4 ± 0.58 | CC(=O)Nc1ccc(-c2csc(NC(=S)Nc3ccc(C(=O)O)c(O)c3)n2)cc1 [Compound 1-5, 4-(3-(4-(4-acetamidophenyl)thiazol-2-yl)thioureido)-2-hydroxybenzoic acid]
20 | 26.1 ± 1.91 | CNS(=O)(=O)c1cccc(-c2csc(NC(=S)Nc3ccc(C(=O)O)c(O)c3)n2)c1 [Compound 1-29, 2-hydroxy-4-(3-(4-(3-(N-methylsulfamoyl)phenyl)thiazol-2-yl)thioureido)benzoic acid]
21 | 17.3 ± 0.28 | O=C(O)c1ccc(NC(=S)Nc2nc(-c3ccc(F)cc3)cs2)cc1O [Compound 1-13, 4-(3-(4-(4-fluorophenyl)thiazol-2-yl)thioureido)-2-hydroxybenzoic acid]
22 | 35.6 ± 1.3 | CC(=O)Nc1cccc(-c2csc(NC(=S)Nc3ccc(C(=O)O)c(O)c3)n2)c1 [Compound 1-24, 4-(3-(4-(3-acetamidophenyl)thiazol-2-yl)thioureido)-2-hydroxybenzoic acid]
23 | 41.6 ± 3.79 | COc1cccc(-c2csc(NC(=S)Nc3ccc(C(=O)O)c(O)c3)n2)c1 [Compound 1-19, 2-hydroxy-4-(3-(4-(3-methoxyphenyl)thiazol-2-yl)thioureido)benzoic acid]
24 | 32.8 ± 3.87 | O=C(O)c1ccc(NC(=S)Nc2nc(-c3cccc(O)c3)cs2)cc1O [Compound 1-21, 2-hydroxy-4-(3-(4-(3-hydroxyphenyl)thiazol-2-yl)thioureido)benzoic acid]
25 | 34 ± 2.18 | Cc1ccccc1-c1csc(NC(=S)Nc2ccc(C(=O)O)c(O)c2)n1 [Compound 1-12, 2-hydroxy-4-(3-(4-(o-tolyl)thiazol-2-yl)thioureido)benzoic acid]
26 | 2.5 ± 0.21 | O=C(O)c1ccc(NC(=S)Nc2nc(-c3ccc([N+](=O)[O-])c(S(=O)(=O)NCc4ccccc4)c3)cs2)cc1O [Compound 1-39, 4-(3-(4-(3-(N-benzylsulfamoyl)-4-nitrophenyl)thiazol-2-yl)thioureido)-2-hydroxybenzoic acid]
27 | 42.5 ± 3.83 | O=C(O)c1ccc(NC(=S)Nc2nc(-c3ccc(O)cc3)cs2)cc1O [Compound 1-20, 2-hydroxy-4-(3-(4-(4-hydroxyphenyl)thiazol-2-yl)thioureido)benzoic acid]
28 | 19.3 ± 0.93 | O=C(O)c1ccc(NC(=S)Nc2nc(-c3ccc(F)cc3F)cs2)cc1O [Compound 1-31, 4-(3-(4-(2,4-difluorophenyl)thiazol-2-yl)thioureido)-2-hydroxybenzoic acid]
29 | 26.2 ± 2.54 | O=C(O)c1ccc(NC(=S)Nc2nc(-c3ccccc3F)cs2)cc1O [Compound 1-15, 4-(3-(4-(2-fluorophenyl)thiazol-2-yl)thioureido)-2-hydroxybenzoic acid]
30 | 18.6 ± 0.23 | O=C(O)c1ccc(NC(=S)Nc2nc(-c3ccc(Br)cc3)cs2)cc1O [Compound 1-26, 4-(3-(4-(4-bromophenyl)thiazol-2-yl)thioureido)-2-hydroxybenzoic acid]
31 | 38.8 ± 3.13 | CNS(=O)(=O)c1ccc(-c2csc(NC(=S)Nc3ccc(C(=O)O)c(O)c3)n2)cc1 [Compound 1-28, 2-hydroxy-4-(3-(4-(4-(N-methylsulfamoyl)phenyl)thiazol-2-yl)thioureido)benzoic acid]
32 | 101 ± 8.48 | CC(=O)Nc1ccc(-c2csc(NC(=S)Nc3ccc(C(=O)O)cc3)n2)cc1 [Compound 1-7, 4-(3-(4-(4-acetamidophenyl)thiazol-2-yl)thioureido)benzoic acid]
33 | 26.8 ± 1.42 | O=C(O)c1ccc(NC(=S)Nc2nc(-c3ccc(C(F)(F)F)cc3)cs2)cc1O [Compound 1-16, 2-hydroxy-4-(3-(4-(4-(trifluoromethyl)phenyl)thiazol-2-yl)thioureido)benzoic acid]
34 | 12.8 ± 0.48 | N#Cc1ccc(-c2csc(NC(=S)Nc3ccc(C(=O)O)c(O)c3)n2)cc1F [Compound 1-32, 4-(3-(4-(4-cyano-3-fluorophenyl)thiazol-2-yl)thioureido)-2-hydroxybenzoic acid]
35 | 24.3 ± 2.54 | O=C(O)c1ccc(NC(=S)Nc2nc(-c3cccc(C(F)(F)F)c3)cs2)cc1O [Compound 1-17, 2-hydroxy-4-(3-(4-(3-(trifluoromethyl)phenyl)thiazol-2-yl)thioureido)benzoic acid]

test system: Ewing sarcoma cell line A4573; assay: Growth inhibition of Ewing sarcoma cell line A4573; type: cell-based

Row | SMILES | growth of Ewing sarcoma cells
36 | CCOC(=O)c1ccc(Nc2nc(-c3ccc(NC(C)=O)cc3)cs2)cc1O [Compound 1-2, Ethyl 4-((4-(4-acetamidophenyl)thiazol-2-yl)amino)-2-hydroxybenzoate] | inhibited growth
37 | CCOC(=O)c1ccc(Nc2nc(-c3ccc(NC(=O)CCCCNC(=O)COc4cccc5c4C(=O)N(C4CCC(=O)NC4=O)C5=O)cc3)cs2)cc1O (stereo not shown) [Compound 1-3, ethyl 4-((4-(4-(5-(2-((2-(2,6-dioxopiperidin-3-yl)-1,3-dioxoisoindolin-4-yl)oxy)acetamido)pentanamido)phenyl)thiazol-2-yl)amino)-2-hydroxybenzoate] | inhibited growth

test system: Ewing sarcoma cell line A673; assay: Growth inhibition of Ewing sarcoma cell line A673; type: cell-based

Row | SMILES | growth of Ewing sarcoma cells
38 | CCOC(=O)c1ccc(Nc2nc(-c3ccc(NC(C)=O)cc3)cs2)cc1O [Compound 1-2, Ethyl 4-((4-(4-acetamidophenyl)thiazol-2-yl)amino)-2-hydroxybenzoate] | inhibited growth
39 | CCOC(=O)c1ccc(Nc2nc(-c3ccc(NC(=O)CCCCNC(=O)COc4cccc5c4C(=O)N(C4CCC(=O)NC4=O)C5=O)cc3)cs2)cc1O (stereo not shown) [Compound 1-3, ethyl 4-((4-(4-(5-(2-((2-(2,6-dioxopiperidin-3-yl)-1,3-dioxoisoindolin-4-yl)oxy)acetamido)pentanamido)phenyl)thiazol-2-yl)amino)-2-hydroxybenzoate] | inhibited growth

molecular target: T1, SIRT5; assay: Degradation of SIRT5 protein; type: cell-based

Row | degradation of protein SIRT5 | SMILES
40 | degraded | CCOC(=O)c1ccc(Nc2nc(-c3ccc(NC(=O)CCCCNC(=O)COc4cccc5c4C(=O)N(C4CCC(=O)NC4=O)C5=O)cc3)cs2)cc1O (stereo not shown) [Compound 1-3, ethyl 4-((4-(4-(5-(2-((2-(2,6-dioxopiperidin-3-yl)-1,3-dioxoisoindolin-4-yl)oxy)acetamido)pentanamido)phenyl)thiazol-2-yl)amino)-2-hydroxybenzoate]
